Where two headings read alike, the source gives them in different places.
Key:
[1] = system: acetic acid-induced stretching symptom of mouse; assay: Analgesic activity, acetic acid-induced stretching method; type: in vivo, mice (ddy strain, male); details: for ED50: oral, mice (Δ values; range in parentheses), read-out: Analgesic activity, acetic acid-induced stretching method, 50% effective dose ED50
Procedure: (§1) Next, several tests for determining the pharmacological properties, in that acute toxicity, anti-pyretic activity, analgesic activity and anti-inflammatory activity of the present 1,3,5-substituted biuret compounds of the formula (1) were conducted and the test results are shown in Table (2). In the tests, each compounds to be tested was used as a suspension in 0.25% carboxymethylcellulose solution. Methods for testing are explained as follows:
(1) Acetic acid-induced stretching method
According to the method reported by Koster et.al., [Fed. Proc., Vol. 18, pp. 412 (1959)], the ddy strain of male mice (body weight, 20-25 g) were used as test animals. The mice were fasted overnight, 100 mg/kg body weight of the test compound was administered orally, then 1 hour after the administration, 0.2 ml of 0.7% acetic acid solution was injected intraperitoneally. The acetic acid-induced stretching symptom of mouse was observed. Analgesic activity of the test compound was calculated as the inhibitory ratio (%). In Table 2, the values in parentheses show the data obtained from the test by using the dosage other than 100 mg/kg body weight. Further, the values indicated with Δ marks show 50% effective dose, ED50 (mg/kg body weight).

[2] = system: pain reaction of the mouse caused by a clamp; assay: Analgesic activity, Haffner method; type: in vivo, mice (ddy strain, male); details: for ED50: Mus musculus, oral, mice (Δ values; range in parentheses), read-out: Analgesic activity, Haffner method, 50% effective dose ED50; for Analgesic activity, Haffner method, inhibitory ratio: mice
Procedure: as §1
According to the modified method reported by Fujimura et al., [Bulletin of the Institute for Chemical Research, Kyoto University, No. 25, pp. 36 (1951)], the ddy strain of male mice (body weight, 20-25 g) were used as test animals. The mice were fasted overnight, 100 mg/kg body weight of the test compound was administered orally, then 45 minutes after the administration, the threshhold amount (1.5-2.5 mg/kg body weight) of morphine hydrochloride was injected subcutaneously. Then 1-hour pain reaction of the mouse caused by a clamp was observed. Analgesic activity of the test compound was calculated as the inhibitory ratio (%). In Table 2, the values in parentheses show the data obtained from the test by using the dosage other than 100 mg/kg body weight. Further, the values indicated with Δ marks show 50% effective dose, ED50 (mg/kg body weight).

[3] = Acute toxicity (oral, general symptom and death observed for 7 days); type: in vivo, mice (ddy strain, male); details: mouse, in vivo; oral, mice, 7 days observation (Δ values); read-out: Acute toxicity, 50% lethal dose LD50
Procedure: as §1
(§2) The ddy strain of male mice (body weight, 20-25 g) were used as test animals. The mice were fasted overnight and the compound to be tested was administered orally. […] The lethal dose (mg/kg, body weight) of the test compound was determined in connection with the death number of mice/the number of mice tested. In Table 2, the values indicated with Δ marks are 50% lethal dose, LD50 (mg/kg, body weight).

[4] = system: carrageenin-induced inflammation of the hindpaw of the rat; assay: Anti-inflammatory activity, acute carrageenin-induced inflammatory test; type: in vivo, rats (Wistar strain, male); details: Rattus norvegicus, read-out: Anti-inflammatory activity, inflammation inhibitory ratio
Procedure: as §1
4. Anti-inflammatory Activity
According to the method of acute carrageenin-induced inflammatory test [Folia Pharmacologia Japonica, Vol. 56, pp. 575 (1960)], the Wistar strain of male rats (body weight, 150-180 g) were used as test animals. The rats were fasted overnight, 100 mg/kg body weight of the test compound was administered orally, then 1 hour after the administration, 0.1 ml of 1% carrageenin solution, as the inflammation inducing agent, was injected subcutaneously to the hindpaw of the rat and the volume of the hindpaw was measured at time sequences. Anti-inflammatory activity of the test compound was calculated as inflammation inhibitory ratio (%) at 3 hours after the injection of inflammation inducing agent.

[5] = system: 10% dry-yeast suspension-induced fever of rats; assay: Anti-pyretic activity (dry-yeast induced fever, febril index); type: in vivo, rats (Wistar strain, male); details: oral, febril index up to 4 hours after administration, dose not stated
Procedure: as §1
According to the method reported by Tanabe [Folia Pharmacologia Japonica, Vol. 73, pp. 803 (1977)], the Wistar strain of male rats (150-180 g body weight) were used as test animals. The rats were fasted overnight, and 1 ml/100 g (body weight) of 10% dry-yeast suspension were subcutaneously injected on the back of the rats. Five hours afte the injection, the test compound was administered orally, then the body temperature of the rat was measured time sequences. Anti-pyretic activity of the test compound was determined as the FI (febril index) by integrating pyrogenetic curve up to 4 hours after the administration of the test compound with time, and indicated as inhibitory ratio (%) shown by the following formula, [formula]

[6] = system: ddy strain of male mice; assay: Acute toxicity (oral, general symptom and death observed for 7 days); type: in vivo; details: 2000 mg/kg oral, 7 days
Procedure: as §1, §2

[7] = 100 mg/kg oral, rats, 3 hours after carrageenin
[8] = po, read-out: Analgesic activity, acetic acid-induced stretching method, inhibitory ratio

SMILES	ED50 [1] [mg/kg]	ED50 [2] [mg/kg]	LD50 at 168 h [3] [mg/kg]	inhibition in vivo at 100 mg/kg [4, 7] [%]	Anti-pyretic activity, inhibitory ratio [5] [%]	inhibition in vivo at 100 mg/kg ([1]; 100 mg/kg oral, mice, read-out: Analgesic activity, acetic acid-induced stretching method, inhibitory ratio) [%]	Analgesic activity, Haffner method, inhibitory ratio ([2]; 100 mg/kg oral) [%]	inhibition in vivo at 100 mg/kg [1, 8] [%]	inhibition in vivo at 100 mg/kg ([4]; po, 3 h) [%]	inhibition in vivo at 200 mg/kg [1, 8] [%]	Analgesic activity, Haffner method, inhibitory ratio ([2]; 200 mg/kg oral) [%]	inhibition in vivo at 200 mg/kg ([4]; 200 mg/kg oral, rats, 3 hours after carrageenin) [%]	Acute toxicity, death number of mice/number of mice tested [6]
CNC(=O)N(C)C(=O)Nc1ccccc1 [Compound No. 3, 1,3-dimethyl-5-phenylbiuret]	35	111	1450	88	145	–	–	–	–	–	–	–	–
CNC(=O)N(C)C(=O)Nc1ccc(OC)cc1 [Compound No. 8, 1,3-Dimethyl-5-(4-methoxyphenyl)-biuret]	–	–	1440	40	110	87.5	50	–	–	–	–	–	–
CNC(=O)N(C)C(=O)Nc1ccccn1 [Compound No. 14, 1,3-dimethyl-5-(2-pyridyl)biuret]	–	145	656	54	–	–	–	62.5	–	–	–	–	–
CNC(=O)N(C)C(=O)Nc1cccnc1 [Compound No. 15, 1,3-Dimethyl-5-(3-pyridyl)-biuret]	44	–	1100	37	94	–	62.5	–	–	–	–	–	–
CCNC(=O)N(C)C(=O)Nc1ccccc1 [Compound No. 31, 1-ethyl-3-methyl-5-phenylbiuret]	70	105	1590	63	149	–	–	–	–	–	–	–	–
CCNC(=O)N(C)C(=O)Nc1cc(OC)c(OC)c(OC)c1 [Compound No. 37, 1-Ethyl-3-methyl-5-(3,4,5-trimethoxyphenyl)biuret]	–	46	749	–	97	–	–	75	–	–	–	–	–
CNC(=O)N(C)C(=O)Nc1ccc(Cl)cc1 [compound 6]	40	–	1240	–	72	–	50	–	43	–	–	–	–
CNC(=O)N(C)C(=O)Nc1ccc2c(c1)OCO2 [compound 9, 1,3-Dimethyl-5-(3,4-methylenedioxyphenyl)biuret]	–	–	1080	46	38	–	25	87.5	–	–	–	–	–
CNC(=O)N(C)C(=O)Nc1ccncc1 [compound 16]	–	–	1100	34	–	–	25	62.5	–	–	–	–	–
CNC(=O)N(C)C(=O)Nc1ncccn1 [compound 19, 1,3-Dimethyl-5-(2-pyrimidinyl)biuret]	–	–	1400	–	6	–	37.5	50	–	–	–	–	–
CCNC(=O)NC(=O)Nc1ccc(OC)cc1 [compound 28, 1-Ethyl-5-(4-methoxyphenyl)biuret]	–	–	1600	–	–	–	–	–	–	37.5	37.5	75	–
CCNC(=O)N(C)C(=O)Nc1ccc(OC)c(OC)c1 [compound 36, 1-Ethyl-3-methyl-5-(3,4-dimethoxyphenyl)biuret]	–	–	833	–	43	–	62.5	50	23	–	–	–	–
CCNC(=O)N(C)C(=O)Nc1cccs1 [compound 40]	–	–	559	–	42	–	37.5	75	24	–	–	–	–
C=CCNC(=O)NC(=O)Nc1ccccc1 [compound 44]	–	–	1400	–	–	–	50	62.5	33	–	–	–	–
CCC(C)NC(=O)N(C)C(=O)Nc1ccccc1 (centres unmarked) [compound 50, 1-(1-Methylpropyl)-3-methyl-5-phenylbiuret]	–	–	–	–	27	–	25	62.5	47	–	–	–	0/4
CN(C(=O)Nc1ccccc1)C(=O)NC(C)(C)C [compound 51, 1-tert-Butyl-3-methyl-5-phenylbiuret]	–	–	–	34	83	–	37.5	50	–	–	–	–	0/4

Reference: patent publication US4350700A, “Pharmaceutical composition containing 1,3,5-substituted biuret compound” (Taiho Pharmaceutical Company, Limited, priority 1979, dated 1982)
